Data: ChEMBL document CHEMBL1201862, “PubChem BioAssay data set” (2004)
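Following 48 hours of exposure in 96-well plates, responses at five concentrations were used to interpolate endpoints linearly. The concentration for 50% growth inhibition is given as GI50.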 Calls of active or inactive are those of the source. No stated cut-off is given here; in the data, active = GI50 up to about 1.1 µM and inactive = higher.

Columns and labels:
Assay in all cases: NCI tumour cell line growth inhibition, 48 h
NCI-H522 = system: NCI-H522
SK-MEL-5 = system: SK-MEL-5
RPMI-8226 = system: RPMI-8226
UACC-62 = system: UACC-62
SK-OV-3 = system: SK-OV-3
MOLT-4 = system: MOLT-4
SNB-78 = system: SNB-78
SK-MEL-28 = system: SK-MEL-28
COLO 205 = system: COLO 205
CCRF-CEM = system: CCRF-CEM
M19-MEL = system: M19-MEL
SF-295 = system: SF-295
HT-29 = system: HT-29
786-0 = system: 786-0
NCI-H460 = system: NCI-H460
HL-60 = system: HL-60

Measured: GI50

CC12CC3CC(C1)CC(N=[N+]=[N-])(C3)C2
inactive: NCI-H522 > 100 µM | SK-MEL-5 > 100 µM | RPMI-8226 > 100 µM | UACC-62 > 100 µM | SK-OV-3 > 100 µM | MOLT-4 > 100 µM | SNB-78 > 100 µM | SK-MEL-28 > 100 µM | COLO 205 > 100 µM | CCRF-CEM > 100 µM | M19-MEL > 100 µM | SF-295 > 100 µM | HT-29 > 100 µM | 786-0 > 100 µM | NCI-H460 > 100 µM

N#CC1C(=O)C(=O)N(c2ccccc2)C1=O (centres undefined)
inactive: NCI-H522 > 100 µM | SK-MEL-5 > 100 µM | RPMI-8226 > 100 µM | UACC-62 > 100 µM | SK-OV-3 > 100 µM | SNB-78 > 100 µM | SK-MEL-28 > 100 µM | COLO 205 > 100 µM | M19-MEL > 100 µM | SF-295 > 100 µM | HT-29 > 100 µM | 786-0 > 100 µM | NCI-H460 > 100 µM

O=C(O)C(Cc1cccs1)NC(=O)C(F)(F)F (centres undefined)
inactive: NCI-H522 > 100 µM | SK-MEL-5 > 100 µM | RPMI-8226 > 100 µM | UACC-62 > 100 µM | SK-OV-3 > 100 µM | MOLT-4 > 100 µM | HL-60 > 100 µM | SK-MEL-28 > 100 µM | COLO 205 > 100 µM | CCRF-CEM > 100 µM | M19-MEL > 100 µM | SF-295 > 100 µM | HT-29 > 100 µM | NCI-H460 > 100 µM

O=C1C(=C2CCCC2)CCC1CN1CCCCC1 (centres undefined)
inactive: NCI-H522 1.77 µM | SK-MEL-5 18.2 µM | UACC-62 18.5 µM | MOLT-4 18.5 µM | SNB-78 19.6 µM | HL-60 4.63 µM | SK-MEL-28 17.5 µM | COLO 205 25.7 µM | CCRF-CEM 14.3 µM | M19-MEL 32.4 µM | SF-295 > 100 µM | HT-29 20.4 µM | 786-0 13.6 µM | NCI-H460 > 10 µM

NC1C(O)C(O)C(CO)OC1n1cc(F)c(=O)[nH]c1=O (centres undefined)
inactive: NCI-H522 > 100 µM | SK-MEL-5 > 100 µM | RPMI-8226 > 100 µM | SK-OV-3 > 100 µM | MOLT-4 > 100 µM | SNB-78 > 100 µM | HL-60 > 100 µM | SK-MEL-28 > 100 µM | COLO 205 > 100 µM | CCRF-CEM > 100 µM | SF-295 > 100 µM | HT-29 > 100 µM | NCI-H460 > 100 µM
